Like-named read-outs stand apart in the source and are kept apart here.
Conditions: in vivo; for Plasma Isoleucine Concentrations After Ingestion / Plasma Leucine Concentrations After Ingestion / Plasma Lysine Concentrations After Ingestion / Plasma Methionine Concentrations After Ingestion / Plasma Phenylalanine Concentrations After Ingestion / Plasma Threonine Concentrations After Ingestion / Plasma Tryptophan Concentrations After Ingestion / Plasma Valine Concentrations After Ingestion / Total Plasma BCAA Concentrations After Ingestion / Total Plasma EAA Concentrations After Ingestion / Plasma Leucine Delta Change Relative to Baseline Values / Plasma Leucine Percent Change Relative to Baseline Values / relative increase in plasma leucine from Pre / elevation in plasma leucine relative to baseline, times greater than the other condition: male, human
Protocol: The subject came into the laboratory fasted prior to the testing days. […] On Day 1, they were randomized to consume 1 of the 2 conditions. Following, consumption of the fluid mixture (8 oz. water), plasma amino acids were measured at 30, 60, 90, and 120 minutes. A 72-hour washout took place followed by the 2nd condition following the same procedures.
The dosage used in this study was either 2 grams of di-leucine (condition Ce) or 2 grams of leucine (condition C4).

- increase in plasma lysine, times greater than the other condition: 19 ×
- increases in total EAA concentration relative to baseline (range): 9.4% to 16.3%
- plasma phenylalanine change relative to Pre values (range): −16.0% to −3.5%
- Plasma Isoleucine Concentrations After Ingestion: 45.75 nmol/L
- Plasma Leucine Concentrations After Ingestion: 92.25 nmol/L
- Plasma Lysine Concentrations After Ingestion: 121.19 nmol/L
- Plasma Methionine Concentrations After Ingestion: 18.77 nmol/L
- Plasma Phenylalanine Concentrations After Ingestion: 48.61 nmol/L
- Plasma Threonine Concentrations After Ingestion: 87.38 nmol/L
- Plasma Tryptophan Concentrations After Ingestion: 45.00 nmol/L
- Plasma Valine Concentrations After Ingestion: 230.43 nmol/L
- Total Plasma BCAA Concentrations After Ingestion: 368.43 nmol/L
- Total Plasma EAA Concentrations After Ingestion: 689.38 nmol/L
- Plasma Isoleucine Concentrations After Ingestion (30 min): 34.44 nmol/L
- Plasma Leucine Concentrations After Ingestion (30 min): 198.33 nmol/L
- Plasma Leucine Delta Change Relative to Baseline Values (30 min): 106.09 nmol/L
- Plasma Leucine Percent Change Relative to Baseline Values (30 min): 115.0%
- Plasma Lysine Concentrations After Ingestion (30 min): 135.48 nmol/L
- Plasma Methionine Concentrations After Ingestion (30 min): 16.61 nmol/L
- Plasma Phenylalanine Concentrations After Ingestion (30 min): 42.44 nmol/L
- Plasma Threonine Concentrations After Ingestion (30 min): 76.42 nmol/L
- Plasma Tryptophan Concentrations After Ingestion (30 min): 40.12 nmol/L
- Plasma Valine Concentrations After Ingestion (30 min): 210.39 nmol/L
- Total Plasma BCAA Concentrations After Ingestion (30 min): 443.16 nmol/L
- Total Plasma EAA Concentrations After Ingestion (30 min): 754.23 nmol/L
- relative increase in plasma leucine from Pre (30 min): 106.09 nmol/mL
- Plasma Isoleucine Concentrations After Ingestion (60 min): 33.30 nmol/L
- Plasma Leucine Concentrations After Ingestion (60 min): 146.70 nmol/L
- Plasma Leucine Delta Change Relative to Baseline Values (60 min): 54.45 nmol/L
- Plasma Leucine Percent Change Relative to Baseline Values (60 min): 59.0%
- Plasma Lysine Concentrations After Ingestion (60 min): 128.45 nmol/L
- Plasma Methionine Concentrations After Ingestion (60 min): 15.94 nmol/L
- Plasma Phenylalanine Concentrations After Ingestion (60 min): 40.84 nmol/L
- Plasma Threonine Concentrations After Ingestion (60 min): 75.83 nmol/L
- Plasma Tryptophan Concentrations After Ingestion (60 min): 43.54 nmol/L
- Plasma Valine Concentrations After Ingestion (60 min): 200.61 nmol/L
- Total Plasma BCAA Concentrations After Ingestion (60 min): 380.61 nmol/L
- Total Plasma EAA Concentrations After Ingestion (60 min): 685.20 nmol/L
- relative increase in plasma leucine from Pre (60 min): 54.45 nmol/mL
- Plasma Isoleucine Concentrations After Ingestion (90 min): 40.37 nmol/L
- Plasma Leucine Concentrations After Ingestion (90 min): 181.67 nmol/L
- Plasma Leucine Delta Change Relative to Baseline Values (90 min): 89.42 nmol/L
- Plasma Leucine Percent Change Relative to Baseline Values (90 min): 96.9%
- Plasma Lysine Concentrations After Ingestion (90 min): 134.15 nmol/L
- Plasma Methionine Concentrations After Ingestion (90 min): 19.30 nmol/L
- Plasma Phenylalanine Concentrations After Ingestion (90 min): 46.94 nmol/L
- Plasma Threonine Concentrations After Ingestion (90 min): 91.05 nmol/L
- Plasma Tryptophan Concentrations After Ingestion (90 min): 46.58 nmol/L
- Plasma Valine Concentrations After Ingestion (90 min): 225.20 nmol/L
- Total Plasma BCAA Concentrations After Ingestion (90 min): 447.24 nmol/L
- Total Plasma EAA Concentrations After Ingestion (90 min): 785.26 nmol/L
- elevation in plasma leucine relative to baseline, times greater than the other condition (90 min): 2.6 ×
- Plasma Isoleucine Concentrations After Ingestion (120 min): 36.47 nmol/L
- Plasma Leucine Concentrations After Ingestion (120 min): 158.84 nmol/L
- Plasma Leucine Delta Change Relative to Baseline Values (120 min): 66.59 nmol/L
- Plasma Leucine Percent Change Relative to Baseline Values (120 min): 72.2%
- Plasma Lysine Concentrations After Ingestion (120 min): 171.18 nmol/L
- Plasma Methionine Concentrations After Ingestion (120 min): 19.19 nmol/L
- Plasma Phenylalanine Concentrations After Ingestion (120 min): 45.40 nmol/L
- Plasma Threonine Concentrations After Ingestion (120 min): 90.94 nmol/L
- Plasma Tryptophan Concentrations After Ingestion (120 min): 44.81 nmol/L
- Plasma Valine Concentrations After Ingestion (120 min): 234.78 nmol/L
- Total Plasma BCAA Concentrations After Ingestion (120 min): 430.08 nmol/L
- Total Plasma EAA Concentrations After Ingestion (120 min): 801.61 nmol/L
- elevation in plasma leucine relative to baseline, times greater than the other condition (120 min): 1.5 ×
Compound: CC(C)C[C@H](N)C(=O)O [Condition C4, leucine]

Reference: patent publication US11026991B2, “Compositions and methods of use thereof to promote muscle growth and function” (Worlds Greatest Ingredients, LP, priority 2018, dated 2021)
